Values quoted from earlier work, collected in US20250367363A1, “METHODS OF LOCAL IRRIGATION FOR TREATING INFECTIONS” (Osteal Therapeutics, Inc., priority 2023, published 2025).
Like-named read-outs stand apart in the source and are kept apart here. *1 amine or outer side, *2 acyl side, *3 side chain or, on linkers, in order; H or OH if unused. Where a SMILES comes first, the peptide text is derived from it. Bridges are numbered along the chain shown (N, C = ends). [ ]: non-standard residue; d: D form. The star is where a group is joined. hTyr(3S-OH,4S-OH,3'-OSO3H) = N[C@H](C(=O)O)[C@H](O)[C@@H](O)c1ccc(O)c(OS(=O)(=O)O)c1; pTerphenylCO(4''-OnC5H11) = CCCCCOc1ccc(-c2ccc(-c3ccc(C(=O)*)cc3)cc2)cc1; Orn(4R-OH,5R-OH) = O=C([C@H](C[C@@H](O)[C@@H](O)N[*:3])N[*:1])[*:2]; hTyr(3S-OH,4S-OH) = N[C@H](C(=O)O)[C@H](O)[C@@H](O)c1ccc(O)cc1; Pro(3S-OH,4S-Me) = C[C@H]1CN[C@H](C(=O)O)[C@H]1O; X1 = CCCCCOc1ccc(-c2cc(-c3ccc(C(=O)*)cc3)no2)cc1; Gln(3R-OH) = NC(=O)C[C@@H](O)[C@H](N)C(=O)O; Hyp = O=C(O)[C@@H]1C[C@@H](O)CN1

Columns and labels:
[1] = systemic

CCC[C@@H]1C[C@@H](C(=O)N[C@@H]([C@H]2O[C@H](SC)[C@H](O)[C@@H](O)[C@H]2O)[C@H](C)Cl)N(C)C1 [Clindamycin]
Safe Daily Dose ([1]; Table 2 antibiotics): 2.7 g/day | Safe IV Concentration (Table 2 antibiotics): 18 mg/mL

Cc1nnc(SCC2=C(C(=O)O)N3C(=O)[C@@H](NC(=O)Cn4cnnn4)[C@H]3SC2)s1 [Cefazolin]
Safe Daily Dose ([1]; Table 2 antibiotics): 6 g/day | Safe IV Concentration (Table 2 antibiotics): 330 mg/mL

CCCCCOc1ccc(-c2cc(-c3ccc(C(=O)N[C@H]4C[C@@H](O)[C@@H](O)NC(=O)[C@@H]5[C@@H](O)[C@@H](C)CN5C(=O)[C@H]([C@H](O)CC(N)=O)NC(=O)[C@H]([C@H](O)[C@@H](O)c5ccc(O)c(OS(=O)(=O)O)c5)NC(=O)[C@@H]5C[C@@H](O)CN5C(=O)[C@H]([C@@H](C)O)NC4=O)cc3)no2)cc1 [Micafungin] (X1-[Orn(4R-OH,5R-OH)]T[Hyp][hTyr(3S-OH,4S-OH,3'-OSO3H)][Gln(3R-OH)][Pro(3S-OH,4S-Me)]; lactam 1-C)
Safe Daily Dose ([1]; Table 3 antifungal agents): 150 mg | Safe IV Concentration (Table 3 antifungal agents): 1.5 mg/mL

C[C@@H](c1nc(-c2ccc(C#N)cc2)cs1)[C@](O)(Cn1cncn1)c1cc(F)ccc1F [Isavuconazole]
Safe Daily Dose ([1]; Table 3 antifungal agents): 1116 mg | Safe IV Concentration (Table 3 antifungal agents): 1.488 mg/mL

CO/N=C(\C(=O)N[C@@H]1C(=O)N2C(C(=O)[O-])=C(C[N+]3(C)CCCC3)CS[C@H]12)c1csc(N)n1 [Cefepime]
Safe Daily Dose ([1]; Table 2 antibiotics): 6 g/day | Safe IV Concentration (Table 2 antibiotics): 40 mg/mL

O=C(O)c1cn(C2CC2)c2cc(N3CCNCC3)c(F)cc2c1=O [Ciprofloxacin]
Safe Daily Dose ([1]; Table 2 antibiotics): 1.2 g/day | Safe IV Concentration (Table 2 antibiotics): 2 mg/mL

CCCCCOc1ccc(-c2ccc(-c3ccc(C(=O)N[C@H]4C[C@@H](O)[C@@H](O)NC(=O)[C@@H]5[C@@H](O)[C@@H](C)CN5C(=O)[C@H]([C@@H](C)O)NC(=O)[C@H]([C@H](O)[C@@H](O)c5ccc(O)cc5)NC(=O)[C@@H]5C[C@@H](O)CN5C(=O)[C@H]([C@@H](C)O)NC4=O)cc3)cc2)cc1 [Anidulafungin] ({pTerphenylCO(4''-OnC5H11)}-[Orn(4R-OH,5R-OH)]T[Hyp][hTyr(3S-OH,4S-OH)]T[Pro(3S-OH,4S-Me)]; lactam 1-C)
Safe Daily Dose ([1]; Table 3 antifungal agents): 200 mg | Safe IV Concentration (Table 3 antifungal agents): 1 mg/mL

C[C@@H]1[C@H](O)[C@@H](C)/C=C/C=C/C=C/C=C/C=C/C=C/C=C/[C@H](O[C@@H]2O[C@H](C)[C@@H](O)[C@H](N)[C@@H]2O)C[C@@H]2O[C@](O)(C[C@@H](O)C[C@@H](O)[C@H](O)CC[C@@H](O)C[C@@H](O)CC(=O)O[C@H]1C)C[C@H](O)[C@H]2C(=O)O [Amphotericin B]
Safe IV Concentration (Table 3 antifungal agents): 0.25 mg/mL

Gentamicin
Safe Daily Dose ([1]; Table 2 antibiotics): 7 mg/kg/day | Safe IV Concentration (Table 2 antibiotics): 0.2 mg/mL

CN[C@H](CC(C)C)C(=O)N[C@H]1C(=O)N[C@@H](CC(N)=O)C(=O)N[C@H]2C(=O)N[C@H]3C(=O)N[C@H](C(=O)N[C@H](C(=O)O)c4cc(O)cc(O)c4-c4cc3ccc4O)[C@H](O)c3ccc(c(Cl)c3)Oc3cc2cc(c3O[C@@H]2O[C@H](CO)[C@@H](O)[C@H](O)[C@H]2O[C@H]2C[C@](C)(N)[C@H](O)[C@H](C)O2)Oc2ccc(cc2Cl)[C@H]1O [Vancomycin]
Safe Daily Dose ([1]; Table 2 antibiotics): 45 to 60 mg/kg/day | Safe IV Concentration (Table 2 antibiotics): 5 mg/mL

CC[C@H](C)C[C@H](C)CCCCCCCCC(=O)N[C@H]1C[C@@H](O)[C@@H](NCCN)NC(=O)[C@@H]2[C@@H](O)CCN2C(=O)[C@H]([C@H](O)CCN)NC(=O)[C@H]([C@H](O)[C@@H](O)c2ccc(O)cc2)NC(=O)[C@@H]2C[C@@H](O)CN2C(=O)[C@H]([C@@H](C)O)NC1=O [Caspofungin]
Safe Daily Dose ([1]; Table 3 antifungal agents): 70 mg | Safe IV Concentration (Table 3 antifungal agents): 0.5 mg/mL
